Values joined by “and” are separate entries in the source; they are usually repeats but may differ in a detail not shown here. Equal values may be shown once. Read-outs that look alike come from different tables or passages of the source. Blank lines part the entries; values can stand above or below the compound they belong to.
Columns and labels:
[1] = system: A549 cells; details: cited from earlier work
[2] = system: EGFR; details: cited from earlier work; for IC50: read-out: EGFR inhibition IC50
[3] = system: A549 cells; assay: MTT assay for cytotoxicity, A549 cells; format: cell-based, human; details: for IC50: Homo sapiens, A549, MTT, 72 h; for anti-NSCLC activity (cytotoxicity): A549 cells, 100 µM
Method: (§1) Dulbecco’s modified Eagle’s medium (DMEM) (Wako Pure Chemical Industries, Osaka, Japan) containing 10% fetal bovine serum (FBS) (Equitech-Bio, Kerrville, TX, USA) was used for the culture of A549 and MCF-7 human cancer cells, while RPMI 1640 (Wako Pure Chemical Industries) containing 10% FBS was used for the culture of Jurkat cells, derived from human leukemia. On the other hand, PBMCs (Precision Bioservices, Frederick, MD, USA) were incubated in RPMI 1640 supplemented with 10% human serum AB (HS) (Gemini, Woodland, CA, USA). All media also incorporated 89 μg/mL of streptomycin (Meiji Seika Pharma, Tokyo, Japan), and cells were maintained at 37 °C in a 95% air and 5% CO2 humidified chamber. The microtiter tissue culture plates (24-well and 96-well) (Iwaki, Asahi Glass Co., Chiba, Japan) were used for cancer cells (4 × 10^4 cells/mL) and PBMCs (5 × 10^5 cells/mL), respectively. Prior to drug treatment, all of these cells were incubated for 72 h. The optimal cell density for cytotoxicity testing was established in preliminary experiments. […] The final concentration of DMSO in the culture medium was adjusted to 1% [61, 62, 63].
(§2) The cellular reduction in MTT (Dojindo Molecular Technologies, Kumamoto, Japan) was measured as described in the literature with minor modifications. […] MTT was then added at a final concentration 0.275 mg/mL and incubated for a further 4 h at 37 °C. The medium was removed and 100 μL DMSO was added to each well to dissolve the formazan crystals. The dissolved crystals were diluted (1:10) with DMSO, and 100 μL of the solution was transferred to a 96-well microtiter plate (Iwaki, Asahi Glass Co.). Absorbance was measured at 570 nm using an Infinitive M1000 microplate spectrophotometer (Tecan, Groding, Austria). Each concentration was tested in triplicate, and the IC50 values were determined as the drug concentrations that reduced absorbance to 50% of the control values.

[4] = system: MCF-7 cells; assay: MTT assay for cytotoxicity, MCF-7 cells; format: cell-based, human; details: for IC50: Homo sapiens, MCF7, MTT, 72 h; for anti-breast cancer activity (cytotoxicity): MCF-7 cells, 100 µM
Method: as §1, §2

[5] = system: Jurkat cells; assay: MTT assay for cytotoxicity, Jurkat cells; format: cell-based, human; details: for IC50: Homo sapiens, Jurkat, MTT, 72 h
Method: as §1, §2

[6] = system: PBMCs; assay: MTT assay for cytotoxicity, PBMCs (healthy); format: cell-based; details: PBMC, 72 h, healthy cells
Method: as §1
The cellular reduction in MTT (Dojindo Molecular Technologies, Kumamoto, Japan) was measured as described in the literature with minor modifications. […] Absorbance was measured at 570 nm using an Infinitive M1000 microplate spectrophotometer (Tecan, Groding, Austria). […]

[7] = system: MCF-7 cells; details: cited from earlier work
[8] = system: A549 cells; assay: Annexin V/ethidium homodimer III staining for apoptosis, A549 cells; format: cell-based, human; details: IC50 concentration, 24 h
Method: (§3) Compound B-4 at an IC50 concentration was administered to A549 and MCF-7 cells for 24 h. After detachment from the plate with 0.05% trypsin and washing twice with 1× binding buffer, the cells were incubated for 20 min at r.t. in the dark with a staining solution bearing 50 μL 1× binding buffer, 4 μL FTIC annexin V solution, 4 μL ethidium homodimer III solution, and 4 μL Hoechst 33342 solution. The cells were washed with 1× binding buffer, fixed with 2% paraformaldehyde, washed with PBS, and analyzed by a Biorevo Fluorescence BZ-9000 (Keyence, Osaka, Japan) integrated fluorescence microscope.

[9] = system: MCF-7 cells; assay: Annexin V/ethidium homodimer III staining for apoptosis, MCF-7 cells; format: cell-based, human; details: IC50 concentration, 24 h
Method: as §3

[10] = target: T1, EGFR kinase (Homo sapiens, UniProt P00533); assay: EGFR inhibition assay (EGFR Kinase Enzyme System, ADP-Glo); format: biochemical
T1 construct: EGFR kinase (human, recombinant; amino acids 695–end); purchased Promega Corporation V3831
T1 sequence (P00533 695-1210 limits assumed): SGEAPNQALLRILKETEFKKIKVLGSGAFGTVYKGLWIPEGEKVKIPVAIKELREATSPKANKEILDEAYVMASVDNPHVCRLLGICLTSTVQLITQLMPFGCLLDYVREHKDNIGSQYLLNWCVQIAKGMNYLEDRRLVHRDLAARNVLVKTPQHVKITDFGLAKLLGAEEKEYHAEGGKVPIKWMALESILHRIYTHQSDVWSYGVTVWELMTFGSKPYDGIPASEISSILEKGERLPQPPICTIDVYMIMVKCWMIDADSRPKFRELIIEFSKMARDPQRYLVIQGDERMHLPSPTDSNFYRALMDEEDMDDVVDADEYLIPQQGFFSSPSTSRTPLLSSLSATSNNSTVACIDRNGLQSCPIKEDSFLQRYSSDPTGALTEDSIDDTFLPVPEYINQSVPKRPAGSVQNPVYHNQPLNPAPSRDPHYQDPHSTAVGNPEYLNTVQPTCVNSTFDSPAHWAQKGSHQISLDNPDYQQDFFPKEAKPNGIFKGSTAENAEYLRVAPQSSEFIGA
Method: The kinase profiling assay protocol (EGFR Kinase Enzyme System, V3831) was performed following the manufacturer’s instructions (Promega Corporation, Madison, WI, USA) with minor modifications. As per the protocol, 95 μL of 2.5× kinase buffer and 15 μL of 100 μM ATP solution were used for the dilution of the EGFR kinase (human, recombinant; amino acids 695–end) and its substrate (4:1 Glu, Tyr). Kinase reactions were performed in a 384-well plate in the presence of 2 μL of kinase working stock, 2 μL of ATP/substrate working stock, and 1 μL of the test compound solution ([…]) or 5% DMSO solution. After incubating for 2 h at r.t., kinase activity was assessed using the ADP-Glo Kinase Assay (Promega Corporation, Madison, WI, USA) following the manufacturer’s instructions. Specifically, 5 μL of ADP-Glo Reagent was added to each well and incubated for 40 min, followed by the addition of 10 μL of Kinase Detection Reagent and further incubation for 30 min at room temperature. Luminescence was measured using the Infinite M1000 microplate reader (Tecan, Grödig, Austria) with an integration time of 0.5–1 s to evaluate the kinase inhibitory effects of the compounds in a dose-dependent manner.

[11] = thiazolyl–pyrazolines, read-out: IC50 A549 cells
[12] = quinoline/chalcone hybrids with 1,2,4-triazole
[13] = triazoloquinoxaline–chalcone derivatives

Structure (SMILES): COc1ccc(C2CC(c3ccc(Cl)cc3Cl)=NN2c2nc(C)c(C(=O)Nc3ccccc3)s2)cc1OC (centres unmarked) [Compound 10d]
IC50 [1, 11]: 2.92 µM
IC50 ([2]; thiazolyl–pyrazolines): 0.0325 µM

Structure (SMILES): CS(=O)(=O)CCNCc1ccc(-c2ccc3ncnc(Nc4ccc(OCc5cccc(F)c5)c(Cl)c4)c3c2)o1 [Lapatinib]
IC50 [3]: 18.2 ± 3.25 µM
IC50 [4]: 9.71 ± 1.12 µM
IC50 [5]: 1.43 ± 0.35 µM
IC50 [6]: 12.7 ± 2.08 µM

Structure (SMILES): COc1ccc(C2=NN(C(N)=S)C(c3cnc(-c4ccc(Cl)cc4)nc3)C2)cc1OC (centres unmarked) [B-9, 5-(2-(4-chlorophenyl)pyrimidin-5-yl)-3-(3,4-dimethoxyphenyl)-4,5-dihydro-1H-pyrazole-1-carbothioamide]
anti-NSCLC activity (cytotoxicity) [3]: 43%
anti-breast cancer activity (cytotoxicity) [4]: 33%

Structure (SMILES): COc1ccc(C2CC(c3ccc(OC)c(OC)c3)=NN2c2nc(-c3ccccc3)cs2)cc1 (centres unmarked) [Compound 6e]
IC50 ([7]; thiazolyl–pyrazolines): 7.21 µM
IC50 ([2]; thiazolyl–pyrazolines): 0.009 µM

Structure (SMILES): COc1ccc(C2=NN(c3nc(-c4ccc(Cl)cc4)cs3)C(c3cnc(-c4ccc(Cl)cc4)nc3)C2)cc1OC (centres unmarked) [BH-4, 2-(5-(2-(4-Chlorophenyl)pyrimidin-5-yl)-3-(3,4-dimethoxyphenyl)-4,5-dihydro-1H-pyrazol-1-yl)-4-(4-(chloro)phenyl)thiazole]
anti-breast cancer activity (cytotoxicity) [4]: 38%

Structure (SMILES): C=CCn1c(SCC(=O)Nc2ccc(C(=O)/C=C/c3ccc(Cl)cc3)cc2)nnc1-c1cc(-c2ccccc2)nc2ccccc12 [Compound 7b]
IC50 ([1]; quinoline/chalcone hybrids with 1,2,4-triazole, read-out: IC50 A549 cells): 3.6 ± 0.05 µM
IC50 [7, 12]: 3.3 ± 0.08 µM
IC50 [2, 12]: 1.3 ± 1.2 µM

Structure (SMILES): COc1ccc(C2=NN(c3nc(-c4ccc(Br)cc4)cs3)C(c3cnc(-c4ccc(Cl)cc4)nc3)C2)cc1OC (centres unmarked) [BH-5, 2-(5-(2-(4-Chlorophenyl)pyrimidin-5-yl)-3-(3,4-dimethoxyphenyl)-4,5-dihydro-1H-pyrazol-1-yl)-4-(4-(bromo)phenyl)thiazole]
anti-NSCLC activity (cytotoxicity) [3]: 37%
anti-breast cancer activity (cytotoxicity) [4]: 39%

Structure (SMILES): COc1ccc2nc(Cl)c(C3CC(c4ccc(C)cc4)=NN3c3nc(-c4ccc(F)cc4)cs3)cc2c1 (centres unmarked) [Compound 6c]
IC50 ([7]; thiazolyl–pyrazolines): 0.227 µM
IC50 ([2]; thiazolyl–pyrazolines): 0.0318 µM

Structure (SMILES): CCc1nnc2c(Nc3ccc(C(=O)/C=C/c4ccc(OC)cc4)cc3)nc3ccccc3n12 [Compound 7e]
IC50 [7, 13]: 8.23 ± 0.25 µM
IC50 [2, 13]: 0.083 ± 0.04 µM

Structure (SMILES): N#Cc1ccc(-c2csc(N3N=C(c4ccc(N5CCOCC5)cc4)CC3c3ccc(Cl)cc3)n2)cc1 (centres unmarked) [Compound 3f]
IC50 [1, 11]: 10.8 µM
IC50 ([7]; thiazolyl–pyrazolines): 8.05 µM
IC50 ([2]; thiazolyl–pyrazolines): 4.34 µM

EGFR inhibition ([10]; 1 μM): weak inhibition
inhibition at 10 µM ([10]; 10 μM): 46%
Structure (SMILES): COc1ccc(C(=O)/C=C/c2cnc(-c3ccc(Cl)cc3)nc2)cc1OC [B-4, (E)-3-(2-(4-chlorophenyl)pyrimidin-5-yl)-1-(3,4-dimethoxyphenyl)prop-2-en-1-one]
anti-NSCLC activity (cytotoxicity) [3]: 70%
IC50 [3]: 20.5 ± 2.71 µM
IC50 [4]: 6.7 ± 1.02 µM
anti-breast cancer activity (cytotoxicity) [4]: 70%
IC50 [5]: 1.5 ± 0.4 µM
SI (Selectivity Index) ([5]; IC50 for PBMC/IC50 for Jurkat cell line): 45.93
IC50 [6]: 68.9 ± 10.3 µM
cells that underwent apoptosis [8]: 11.9%
cells that underwent apoptosis [9]: 10.2%

Structure (SMILES): Clc1ccc(C2CC(c3ccc4ccccc4c3)=NN2c2nc(-c3ccc(Br)cc3)cs2)cc1 (centres unmarked) [BTT-5]
IC50 ([1]; naphthalene-linked pyrazoline–thiazole hybrids, read-out: anti-NSCLC IC50 (A549 cells)): 9.51 µM
EGFR inhibition ([2]; 10 µM concentration, 10 µM): 58% and 58.32%

Structure (SMILES): CCOC(=O)c1sc(N2N=C(c3ccc(Cl)cc3Cl)CC2c2ccc(OC)cc2)nc1C (centres unmarked) [Compound 10b]
IC50 [1, 11]: 4.22 µM
IC50 ([2]; thiazolyl–pyrazolines): 0.0407 µM

Source: PMC11859636, “Design, Synthesis, and Mechanistic Anticancer Evaluation of New Pyrimidine-Tethered Compounds” (Pharmaceuticals, 2025)
